The target in the assay is Recombinant human factor D (Homo sapiens (Human), UniProt P00746). The experiment in a line: biochemical. It counts as biochemical.
The mark [1] stands for this setting: Factor D inhibition data using Method 1, substrate Z-Lys-thiobenzyl, fluorescence readout, read-out: IC50.
[2] abbreviates: IC50, Factor D inhibition data using Method 1, substrate Z-Lys-thiobenzyl, fluorescence readout.

Where two headings read alike, the source gives them in different places.

For orientation: IC50 means the concentration that inhibits the measured activity by half.

Sequence of Recombinant human factor D (P00746 26-253): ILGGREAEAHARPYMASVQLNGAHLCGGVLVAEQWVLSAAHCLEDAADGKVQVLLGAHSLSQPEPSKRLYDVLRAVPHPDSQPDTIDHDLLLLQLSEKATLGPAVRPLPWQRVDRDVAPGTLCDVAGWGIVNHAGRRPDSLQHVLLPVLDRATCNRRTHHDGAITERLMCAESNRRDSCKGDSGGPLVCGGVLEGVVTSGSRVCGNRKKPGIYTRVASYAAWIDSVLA
Description: Human Complement Factor D Assay: Method 1
Recombinant human factor D (expressed in E. coli and purified using standard methods) at 10 nM concentration is incubated with test compound at various concentrations for 1 hour at room temperature in 0.1 M Hepes buffer, pH 7.5, containing 1 mM MgCl2, 1 M NaCl and 0.05% CHAPS. […] IC50 values are calculated from percentage of inhibition of complement factor D-activity as a function of test compound concentration.

Consider `CC(=O)c1nn(CC(=O)N2[C@@H]3C[C@@H]3C[C@H]2C(=O)NC2CC(F)(F)C2)c2ccc(OCc3ncccn3)cc12` [Example 104, (1R,3S,5R)-2-{2-[3-Acetyl-5-(pyrimidin-2-ylmethoxy)-indazol-1-yl]-acetyl}-2-aza-bicyclo[3.1.0]hexane-3-carboxylic acid (3,3-difluoro-cyclobutyl)-amide], for which the IC50 (read-out: IC50) was 273 nM.

On to `CC[C@@H]1CCC[C@H](NC(=O)[C@@H]2C[C@H]3C[C@H]3N2C(=O)Nc2cn(C(N)=O)c3ccccc23)C1` [Example 24, (1R,3S,5R)-2-Aza-bicyclo [3.1.0]hexane-2,3-dicarboxylic acid 2-[(1-carbamoyl-1H-indol-3-yl)-amide] 3-[((1S,3R)-3-ethyl-cyclohexyl)-amide]], for which the IC50 under setting [1] is 401 nM.

Turning to `C[C@]1(CO)CCC[C@@H](NC(=O)[C@@H]2C[C@H]3C[C@H]3N2C(=O)Cn2nc(C(N)=O)c3ccccc32)C1` [Example 127, 1-(2-((1R,3S,5R)-3-(((1R,3S)-3-(hydroxymethyl)-3-methylcyclohexyl)carbamoyl)-2-azabicyclo[3.1.0]hexan-2-yl)-2-oxoethyl)-1H-indazole-3-carboxamide], under setting [1], the concentration for half-maximal inhibition (IC50) was 80 nM.

For the compound `Cc1cc2c(C(N)=O)nn(CC(=O)N3[C@@H]4C[C@@H]4C[C@H]3C(=O)N[C@@H]3CCC[C@H](C(F)(F)F)C3)c2cn1` [Example 50, 5-Methyl-1-{2-oxo-2-[(1R,3S,5R)-3-((1R,3S)-3-trifluoromethyl-cyclohexylcarbamoyl)-2-aza-bicyclo[3.1.0]hex-2-yl]ethyl}-1H-pyrazolo[3,4-c]pyridine-3-carboxylic acid amide], under setting [1], the 50% inhibitory concentration (IC50) stood at 118 nM.

In the case of `CC1(C)CCC[C@@H](NC(=O)[C@@H]2C[C@@H](F)CN2C(=O)Cn2nc(C(N)=O)c3ccncc32)C1` [Example 71, 1-{2-[(2S,4R)-2-((R)-3,3-Dimethyl-cyclohexylcarbamoyl)-4-fluoro-pyrrolidin-1-yl]-2-oxo-ethyl}-1H-pyrazolo[3,4-c]pyridine-3-carboxylic acid amide], where the note is “read-out: IC50”, the half-inhibitory concentration (IC50) worked out at 41 nM.

With `CC(=O)c1nn(CC(=O)N2[C@@H]3C[C@@H]3C[C@H]2C(=O)NC2CC(F)(F)C2)c2cnccc12` [Example 8, (1R,3S,5R)-2-[2-(3-Acetyl-pyrazolo[3,4-c]pyridin-1-yl)-acetyl]-2-aza-bicyclo[3.1.0]hexane-3-carboxylic acid (3,3-difluoro-cyclobutyl)-amide], under setting [1], the IC50 is 2390 nM.

Take `CC1(C)CCC[C@@H](NC(=O)[C@@H]2C[C@@]3(CO)C[C@H]3N2C(=O)Cn2nc(C(N)=O)c3ccccc32)C1` [Example 111, 1-{2-[(1R,3S,5S)-3-((R)-3,3-Dimethyl-cyclohexylcarbamoyl)-5-hydroxymethyl-2-aza-bicyclo[3.1.0]hex-2-yl]-2-oxo-ethyl}-1H-indazole-3-carboxylic acid amide]: the concentration for half-maximal inhibition (IC50) under setting [1] turned out to be 10 nM.

With `COC(=O)[C@@H]1CC[C@@H](NC(=O)[C@@H]2C[C@H]3C[C@H]3N2C(=O)Cn2nc(C(C)=O)c3cccnc32)C1` [Example 13, (1R,3R)-3-({(1R,3S,5R)-2-[2-(3-Acetyl-pyrazolo[3,4-b]pyridin-1-yl)-acetyl]-2-aza-bicyclo[3.1.0]hexane-3-carbonyl}-amino)-cyclopentane carboxylic acid methyl ester], the 50% inhibitory concentration (IC50) under setting [1] was 5970 nM.

As to `NC(=O)c1nn(CC(=O)N2C[C@H](F)C[C@H]2C(=O)NC2CCCC3(CC3)C2)c2ccccc12` (single isomer, unassigned) [Example 93], the IC50 under setting [2] worked out at 92 nM.

In the case of `CC(=O)c1nn(CC(=O)N2[C@@H]3C[C@@H]3C[C@H]2C(=O)NC2CC(C)(C)C2)c2ccc(OCc3ncccn3)cc12` [Example 103, (1R,3S,5R)-2-{2-[3-Acetyl-5-(pyrimidin-2-ylmethoxy)-indazol-1-yl]-acetyl}-2-aza-bicyclo[3.1.0]hexane-3-carboxylic acid (3,3-dimethyl-cyclobutyl)-amide], under setting [1], the IC50 was determined as 36 nM.

Take `C[C@H]1CCC[C@@H](NC(=O)[C@@H]2C[C@H]3C[C@H]3N2C(=O)Cn2nc(C(N)=O)c3ccccc32)C1` [Example 47, 1-{2-[(1R,3S,5R)-3-((1R,3S)-3-Methyl-cyclohexylcarbamoyl)-2-aza-bicyclo[3.1.0]hex-2-yl]-2-oxo-ethyl}-1H-indazole-3-carboxylic acid amide]: for the setting “read-out: IC50”, the IC50 worked out at 91 nM.

On to `CC1(C)CCC[C@H](NC(=O)[C@@H]2C[C@@]3(CO)C[C@H]3N2C(=O)Cn2nc(C(N)=O)c3ccccc32)C1` [Example 112, 1-{2-[(1R,3S,5S)-3-((S)-3,3-Dimethyl-cyclohexylcarbamoyl)-5-hydroxymethyl-2-aza-bicyclo[3.1.0]hex-2-yl]-2-oxo-ethyl}-1H-indazole-3-carboxylic acid amide], for which the IC50 under setting [1] is 370 nM.

Take `CC1(C)CCC[C@H](NC(=O)[C@@H]2[C@@H]3C[C@@H]3CN2C(=O)Cn2nc(C(N)=O)c3ccccc32)C1` [Example 89, 1-{2-[(1R,2S,5S)-2-((S)-3,3-Dimethyl-cyclohexylcarbamoyl)-3-aza-bicyclo[3.1.0]hex-3-yl]-2-oxo-ethyl}-1H-indazole-3-carboxylic acid amide]: where the note is “read-out: IC50”, the IC50 worked out at 2130 nM.

Turning to `CC1(C)C[C@@H](O)C[C@H](NC(=O)[C@@H]2C[C@H]3C[C@H]3N2C(=O)Cn2nc(C(N)=O)c3ccccc32)C1` [Example 109, 1-{2-[(1R,3S,5R)-3-((1R,5R)-5-Hydroxy-3,3-dimethyl-cyclohexylcarbamoyl)-2-aza-bicyclo[3.1.0]hex-2-yl]-2-oxo-ethyl}-1H-indazole-3-carboxylic acid amide], under setting [1], the IC50 is 28 nM.

As to `CC(=O)c1nn(CC(=O)N2[C@@H]3C[C@@H]3C[C@H]2C(=O)NC2CCC(F)(F)CC2)c2cnccc12` [Example 11, (1R,3S,5R)-2-[2-(3-Acetyl-pyrazolo[3,4-c]pyridin-1-yl)-acetyl]-2-aza-bicyclo[3.1.0]hexane-3-carboxylic acid (4,4-difluoro-cyclohexyl)-amide], the IC50 under setting [1] amounted to 3020 nM.

For the compound `CC(=O)c1nn(CC(=O)N2[C@@H]3C[C@@H]3C[C@H]2C(=O)N[C@@H]2CC[C@@H](C(N)=O)C2)c2ncccc12` [Example 12, (1R,3S,5R)-2-[2-(3-Acetyl-pyrazolo[3,4-b]pyridin-1-yl)-acetyl]-2-aza-bicyclo[3.1.0]hexane-3-carboxylic acid ((1R,3R)-3-carbamoyl-cyclopentyl)-amide], where the note is “read-out: IC50”, the half-inhibitory concentration (IC50) stood at 12700 nM.

Regarding `NC(=O)c1nn(CC(=O)N2[C@@H]3C[C@@H]3C[C@H]2C(=O)NC2CCCC(OC(F)(F)F)C2)c2ccccc12` (stereo partly drawn) [Example 33, 1-{2-Oxo-2-[(1R,3S,5R)-3-(trans-3-trifluoromethoxy-cyclohexylcarbamoyl)-2-aza-bicyclo[3.1.0]hex-2-yl]ethyl}-1H-indazole-3-carboxylic acid amide], the half-maximal inhibitory concentration (IC50) (read-out: IC50) came out at 121 nM.

Turning to `NC(=O)c1nn(CC(=O)N2[C@@H]3C[C@@H]3C[C@H]2C(=O)NC2CCCC(O)(C(F)(F)F)C2)c2cnccc12` (stereo partly drawn) [Example 34, 1-{2-[(1R,3S,5R)-3-(3-Hydroxy-3-trifluoromethyl-cyclohexylcarbamoyl)-2-aza-bicyclo[3.1.0]hex-2-yl]-2-oxo-ethyl}-1H-pyrazolo[3,4-c]pyridine-3-carboxylic acid amide], the IC50 under setting [1] was 728 nM.

As for `COC1CC(NC(=O)[C@@H]2C[C@H]3C[C@H]3N2C(=O)Cn2nc(C(N)=O)c3ccccc32)CC(C)(C)C1` (stereo partly drawn) [Example 107, 1-{2-[(1R,3S,5R)-3-(cis-5-Methoxy-3,3-dimethyl-cyclohexylcarbamoyl)-2-aza-bicyclo[3.1.0]hex-2-yl]-2-oxo-ethyl}-1H-indazole-3-carboxylic acid amide], the IC50 (read-out: IC50) is 467 nM.

On to `CC(=O)c1nn(CC(=O)N2[C@@H]3C[C@@H]3C[C@H]2C(=O)NC2CCCC(OC(F)(F)F)C2)c2ccccc12` (stereo partly drawn) [Example 32, (1R,3S,5R)-2-[2-(3-Acetyl-indazol-1-yl)-acetyl]-2-aza-bicyclo[3.1.0]hexane-3-carboxylic acid (trans-3-trifluoromethoxy-cyclohexyl)-amide], for which the IC50 under setting [1] amounted to 63 nM.

In the case of `NC(=O)c1nn(CC(=O)N2[C@@H]3C[C@@H]3C[C@H]2C(=O)N[C@@H]2CCC[C@H](C(F)(F)F)C2)c2ccccc12` [Example 49, 1-{2-Oxo-2-[(1R,3S,5R)-3-((1R,3S)-3-trifluoromethyl-cyclohexylcarbamoyl)-2-aza-bicyclo[3.1.0]hex-2-yl]ethyl}-1H-indazole-3-carboxylic acid amide], under setting [1], the half-maximal inhibitory concentration (IC50) came to 29 nM.

Take `CC(=O)c1nn(CC(=O)N2[C@H](C(=O)NC3CCCC4(CC4)C3)C[C@@]3(CO)C[C@@H]23)c2cnccc12` (single isomer, unassigned) [Example 114]: the half-inhibitory concentration (IC50) under setting [2] was found to be 1280 nM.

Regarding `CC[C@@H]1CCC[C@H](NC(=O)[C@@H]2C[C@H]3C[C@H]3N2C(=O)Cn2nc(C(N)=O)c3ccncc32)C1` [Example 72, 1-{2-[(1R,3S,5R)-3-((1S,3R)-3-Ethyl-cyclohexylcarbamoyl)-2-aza-bicyclo[3.1.0]hex-2-yl]-2-oxo-ethyl}-1H-pyrazolo[3,4-c]pyridine-3-carboxylic acid amide], the IC50 under setting [1] turned out to be 1700 nM.

Regarding `CC(=O)c1nn(CC(=O)N2[C@@H]3C[C@@H]3C[C@H]2C(=O)NC2CC2(F)F)c2ncccc12` (stereo partly drawn) [Example 3, (1R,3S,5R)-2-[2-(3-Acetyl-pyrazolo[3,4-b]pyridin-1-yl)-acetyl]-2-aza-bicyclo[3.1.0]hexane-3-carboxylic acid (2,2-difluoro-cyclopropyl)-amide], under setting [1], the concentration for half-maximal inhibition (IC50) was determined as 4790 nM.

On to `NC(=O)n1cc(NC(=O)N2[C@@H]3C[C@@H]3C[C@H]2C(=O)NC2CCCCC2)c2ccccc21` [Example 15, (1R,3S,5R)-2-Aza-bicyclo[3.1.0]hexane-2,3-dicarboxylic acid 2-[(1-carbamoyl-1H-indol-3-yl)-amide]3-cyclohexylamide], for which the IC50 under setting [1] was 1760 nM.

Regarding `CC(=O)c1nn(CC(=O)N2[C@@H]3C[C@@H]3C[C@H]2C(=O)N[C@@H]2CCC[C@H](C)C2)c2ccc(OCc3ncccn3)cc12` [Example 96, (1R,3S,5R)-2-{2-[3-Acetyl-5-(pyrimidin-2-ylmethoxy)-indazol-1-yl]-acetyl}-2-aza-bicyclo[3.1.0]hexane-3-carboxylic acid ((1R,3S)-3-methyl-cyclohexyl)-amide], the IC50 under setting [1] was 90 nM.

In the case of `CC1(C)CCC(NC(=O)[C@@H]2C[C@H]3C[C@H]3N2C(=O)Cn2nc(C(N)=O)c3ccncc32)C1` (single isomer, unassigned) [Example 67], the half-inhibitory concentration (IC50) under setting [2] was 318 nM.

The values are drawn from patent publication US9487483B2, “Complement pathway modulators and uses thereof” (priority 2012, dated 2016).
